Laboratory results taken from article doi:10.1101/2025.11.20.689647v1, “Alcohols inhibit glucose transporters noncompetitively at a constant membrane concentration according to lipid theory” (biorxiv, 2025).

What was measured:
Hxt2 [1] = test system: T1, Hxt2; test: initial 2DG uptake ([…] s, zero-trans), bioluminescent 2DG6P assay in HXT2m cells; format: cell-based, Saccharomyces cerevisiae; conditions: no alcohol, 0–4 mM 2DG, pH 7.4, 25 °C, zero-trans influx
T1 construct: full-length HXT2 expressed from ADH1 promoter on multicopy plasmid Hxt2mnx-pVT (pVT102-U) in S. cerevisiae EBY.S7 (all 18 hexose transporter genes deleted; HXT2m strain)

Hxt2 [2] = test system: T1, Hxt2; test: as above; format: cell-based, Saccharomyces cerevisiae; conditions: 1 mM 2DG, pH 7.4, 25 °C, 30 min preincubation, authors: nonspecific action via membrane lipid, not specific binding

Q: Which Km (Hxt2 [1]) does the source give for `OC[C@H]1OC(O)C[C@@H](O)[C@@H]1O` (stereo partly drawn) [2DG, 2-deoxyglucose] here?
A: 800 to 900 µM

Q: `CCCCCCO` [C6, 1-hexanol] was tested. Which IC50 (Hxt2 [2]; noncompetitive) did it give?
A: 15.2 mM

Q: How did the IC50 (Hxt2 [2]) turn out when `CCCCCCCCO` [C8, 1-octanol] was run?
A: 3.6 mM
